Experimental findings from publication PMC7614687, “Modulation of the substrate specificity of the kinase PDK1 by distinct conformations of the full-length protein*” (Science signaling, 2023) are described below.

Assay [1] deals with T1, His-PDK1_1-556 and GST-PDK1_360-556 (Homo sapiens, UniProt O15530).
T1 construct: made in house; host or cells: Sf9 insect cells (His-PDK1_1-556); HEK293 cells (GST-PDK1_360-556)
T1 sequence (O15530 1-556): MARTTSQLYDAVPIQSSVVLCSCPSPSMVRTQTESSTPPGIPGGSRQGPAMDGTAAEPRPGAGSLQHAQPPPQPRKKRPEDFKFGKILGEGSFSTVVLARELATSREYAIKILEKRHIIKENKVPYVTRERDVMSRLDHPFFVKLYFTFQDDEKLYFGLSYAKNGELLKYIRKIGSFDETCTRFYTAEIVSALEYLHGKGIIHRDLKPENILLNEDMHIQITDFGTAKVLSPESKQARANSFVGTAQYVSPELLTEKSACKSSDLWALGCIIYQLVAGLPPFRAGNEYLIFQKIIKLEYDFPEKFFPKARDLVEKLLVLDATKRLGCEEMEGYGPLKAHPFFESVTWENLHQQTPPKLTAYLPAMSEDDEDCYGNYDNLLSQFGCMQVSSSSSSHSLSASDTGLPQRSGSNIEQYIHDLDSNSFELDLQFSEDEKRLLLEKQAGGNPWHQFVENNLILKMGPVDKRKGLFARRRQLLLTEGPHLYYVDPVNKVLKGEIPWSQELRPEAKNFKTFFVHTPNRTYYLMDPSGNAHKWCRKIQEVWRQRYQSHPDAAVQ
Briefly: AlphaScreen PDK1 dimerization assay His-PDK1_1-556 / GST-PDK1_360-556. It counts as binding. The method, then:
The AlphaScreen® assay was performed following the general guidelines from the manufacturer (Perkin Elmer) ([29]). In short, the assay was performed in a final volume of 25 μl in white 384-well microtiter plates (Greiner) in a standard buffer containing 50 mM Tris-HCl (pH 7.4), 100 mM NaCl, 2 mM DTT, 0.01% (v/v) Tween-20 and 0.1% (w/v) BSA, with the addition of 5 μl of beads (anti-GST coated acceptor beads and streptavidin-coated donor beads; nickel chelate-coated acceptor beads and streptavidin-coated donor beads; or nickel chelate-coated acceptor beads and GSH-coated donor beads, 20 μg/ml final concentrations for each bead type). AlphaScreen assays for His-tagged proteins and GST-fusion proteins were performed using nickel chelate-coated acceptor beads and GSH-coated donor beads; alphascreen assays for His-tagged proteins and biotinylated molecules were performed using nickel chelate-coated acceptor beads and streptavidin-coated donor beads; alphascreen assays for GST-fusion proteins and biotinylated molecules were performed using anti-GST coated acceptor beads and streptavidin-coated donor beads (Perkin Elmer).
The conditions for each AlphaScreen assay were identified in cross-titration experiments for each interaction to choose the ideal pair of concentrations within the linear range of the interactions. […] His-PDK1 and GST-fusion protein in the presence or absence of the different compounds were incubated in the dark for 60 min at room temperature and the emission of light from the acceptor beads was measured in an EnVision reader (Perkin Elmer) or Spark plate reader (Tecan). […]
A general note: Alpha assays give light when donor and acceptor beads are brought close together.

Another assay addresses T2, PDK1 (Homo sapiens, UniProt O15530).
T2 sequence (O15530 1-556): T1 sequence (O15530 1-556)
The assay can be described thus: Thermo Fisher "PDK1 Direct" assay (peptide Ser/Thr 07, FRET readout). Type of assay: biochemical.

The next assay deals with T3, PDK1_1-556 (Homo sapiens, UniProt O15530).
T3 construct: effect of HYG8 on the thermal stability (ΔTm) of PDK1_1-556 (H) and PDK1_50-359 (I); His (N); made in house; host or cells: Sf9 insect cells (baculovirus)
T3 sequence (O15530 1-556): T1 sequence (O15530 1-556)
Briefly: Differential scanning fluorimetry, thermal stability of PDK1_1-556. The settings on record: PDK1 1 μM. It counts as binding. The method, then: The thermal stability of PDK1 was assessed by monitoring the unfolding of PDK1 by the increase in the fluorescence of SYPRO Orange (Invitrogen) using a real-time PCR device (StepOnePlus, Applied Biosystems and BioRad CFX96) following a previously described protocol ([70]). The reactions were performed in a final volume of 10 μl in white 96-well PCR microtiter plates (Greiner) and contained 1 μM PDK1, 10 mM HEPES (pH 7.5), 150 mM NaCl, 1/1000 SYPRO Orange and 1 mM dithiothreitol. For valsartan, the assay buffer was modified to exclude NaCl. PIFtide or compounds (at a final DMSO concentration of 1%) were added to this reaction mixture. The temperature gradient was performed in steps of 0.3 °C in the range from 25 to 70 °C. To calculate the Tm values, data were exported to GraphPad Prism and curves fitted to a Boltzmann sigmoidal equation with an acceptable confidence interval of 95%. Statistical analysis was performed with Infostat software (http://www.infostat.com.ar) and GraphPad Prism by first verifying a normal distribution of pooled residuals (Shapiro-Wilks test) and homogeneity of variance (F test), and then performing a one-way ANOVA followed by the post hoc comparisons test indicated in each figure legend.
A general note: Differential scanning fluorimetry follows unfolding on heating by fluorescence.

The mark [2] stands for this setting: absence of PIFtide, read-out: IC50 (nM), displacement of His-PDK1_1-556 interaction with GST-PDK1_360-556.
Where [3] appears, read: with PIFtide, read-out: IC50 (nM), displacement of His-PDK1_1-556 interaction with GST-PDK1_360-556 with PIFtide.
Setting [4] is: replicate point 1, read-out: % Inhibition Point 1.
Where [5] appears, read: replicate point 2, read-out: % Inhibition Point 2.
Where [6] appears, read: single point, N=2, read-out: Inhibition at 1 μM (%).

Several values for one entry are separate records, joined by “and”; a condition that tells them apart may be missing. Equal values may be shown once. Entries after “also recorded” stand apart in the source; their conditions may differ. Read-outs that look alike come from different tables or passages of the source.

Turning to `CCCC(=O)O[C@H]1[C@@H](OP(=O)(O)O)[C@H](OP(=O)(O)O)[C@@H](OP(=O)(O)O)[C@H](OP(=O)(O)O)[C@H]1OP(=O)(O)O` [HYG7, 2-O-butyryl-IP5], the IC50 (in general, the point on the concentration scale where inhibition reaches its midpoint) amounted to 22.6 nM in assay [1] (setting [2]), 22.7 nM in assay [1] (setting [3]) and 29 nM at PDK1 (10-point titration). The figures for the inhibition at 1 µM at PDK1 (setting [4]), at PDK1 (setting [5]) and on PDK1 (setting [6]) were 101%, 99% and 100%, respectively. Further, the “Hill slope, PDK1 direct” value at PDK1 (10-point titration) came to 1.39. For the same compound, the “Tm (°C), temperature stabilization of PDK1_1-556” value (“Tm (°C)” below) was 12.6 °C and 11-15 °C at PDK1_1-556 (compound 1 µM); 14.5 °C and 13-16 °C on PDK1_1-556 (compound 20 µM).
With “REPRILSEEEQEMFRDFDYIADWS [PIFtide, peptide derived from the PRK2 HM (a PDK1 substrate)]”, in assay [1], the “effect on PDK1 dimer formation” value was “no effect on dimer formation”.
Regarding `O=P(O)(O)O[C@@H]1[C@@H](OP(=O)(O)O)[C@H](OP(=O)(O)O)[C@@H](O)[C@H](OP(=O)(O)O)[C@H]1OP(=O)(O)O` [scyllo-IP5, reference compound], the IC50 in assay [1] (setting [2]) came to 124 nM; in assay [1] (setting [3]), 140 nM. The inhibition (usually the drop in the measured response relative to a control, in per cent) at 1 µM at PDK1 (setting [4]) was -8%; on PDK1 (setting [5]) it was -10%. Besides, the Inhibition (as a rule, the drop in the measured response relative to a control, in per cent) at 1 μM (%) on PDK1 (single point, N=2) is listed as -9%; on PDK1 (single point, N=2, listed as Scyllo-IP5, 1 µM), ≤ 10%. Further, the “Tm (°C)” value at PDK1_1-556 (compound 1 µM) stood at 4.7 °C; on PDK1_1-556 (compound 20 µM), 7.3 °C.
As to `O=P(O)(O)O[C@@H]1[C@@H](OP(=O)(O)O)[C@H](OP(=O)(O)O)[C@H](O)[C@H](OP(=O)(O)O)[C@H]1OP(=O)(O)O` [IP5, inositol-1,3,4,5,6-pentaphosphate, reference compound], the figures for the IC50 (in assay [1] (setting [2]); in assay [1] (setting [3]); against PDK1 (10-point titration)) were 67 nM, 59.4 nM and 577 nM, respectively. Moreover, the inhibition at 1 µM at PDK1 (setting [4]) was 63%; at PDK1 (setting [5]), 69%; at PDK1 (setting [6]), 66%. Further, the “Hill slope, PDK1 direct” value on PDK1 (10-point titration) was 1.33. For the same compound, the “times less potent inhibitors than HYG7, HYG8 and HYG14” value at PDK1 (PDK1 Direct assay IC50 comparison) lay in the range of 15 to 36 times. Moreover, the “Tm (°C)” value at PDK1_1-556 (compound 1 µM) came out at 5.3 °C; at PDK1_1-556 (compound 20 µM), 11.9 °C.
Turning to `O=P(O)(O)O[C@H]1[C@H](OP(=O)(O)O)[C@@H](OP(=O)(O)O)[C@H](OP(=O)(O)O)[C@@H](OP(=O)(O)O)[C@H]1OP(=O)(O)O` [IP6, inositol hexakisphosphate, reference compound], the “IC50 (nM), displacement of His-PDK1_1-556 interaction with GST-PDK1_360-556” value in assay [1] (absence of PIFtide) was “Does not reach complete displacement; also recorded: no displacement”. Further, the “IC50 (nM), displacement of His-PDK1_1-556 interaction with GST-PDK1_360-556 with PIFtide” value in assay [1] (with PIFtide) was “Does not reach complete displacement”. The inhibition at 1 µM at PDK1 (setting [4]) is 8%; at PDK1 (setting [5]), 7%; at PDK1 (setting [6]), 8%. For the same compound, the “Hill slope, PDK1 direct” value at PDK1 (10-point titration) is listed as “–2.18”. Moreover, on PDK1 (10-point titration), the IC50 is > 10000 nM. Besides, on PDK1 (10-point titration), the “IC50 (nM), PDK1 direct” value was “inactive”. Moreover, the “Tm (°C)” value turned out to be 6.2 °C on PDK1_1-556 (compound 1 µM) and 9.0 °C on PDK1_1-556 (compound 20 µM).
With `CC(C)C(NCc1ccc(-c2ccccc2-c2nnn[nH]2)cc1)C(=O)O` (stereo not shown) [Des(oxopentyl) valsartan, des(oxopentyl)valsartan, reference compound], the “effect on PDK1 dimer formation” value in assay [1] is recorded as “did not disrupt PDK1 dimers”.
As for `CN[C@@H]1C[C@H]2O[C@@](C)([C@@H]1OC)n1c3ccccc3c3c4c(c5c6ccccc6n2c5c31)C(=O)N[C@H]4O` [UCN01], the “effect on PDK1 dimer formation” value in assay [1] was “do not affect the formation of PDK1 dimers”.
The same measure, in the same setting: then `CNc1nc(-c2ccc3c(N)n[nH]c3c2)cc(N2C[C@@H](C(=O)NC3CCCCC3)CC[C@H]2C)n1` [GSK2334470], with “None of these compounds affected the dimerization”.
Still for that read-out and setting: as for `Nc1ncnc2[nH]cnc12` [adenine], the entry is “do not affect the formation of PDK1 dimers”.
In the case of `O=C(CC(c1ccccc1)C(C(=O)O)C(=O)O)c1ccc(C(F)(F)F)cc1` (stereo not shown) [PS210], the “effect on PDK1 dimer formation” value in assay [1] is “None of these compounds affected the dimerization”.
